Source: patent US11332473B2, “Substituted pyrazolo[3,4-d]pyrimidines as Wee1 inhibitors” (NUVATION BIO INC., priority 2019, dated 2022)

Assays:
PKMYT1 kinase = PKMYT1 kinase (Homo sapiens (Human), UniProt Q99640); test: PKMYT1 IC50 determination, HotSpot Kinase Assay; type: biochemical; conditions: 10 μM ATP, 33P-ATP, Myelin Basic Protein substrate
Method: Inhibition of PKMYT1 kinase activity by test compounds was measured by the HotSpot Kinase Assay at Reaction Biology Corporation (Malvern, Pa.). Briefly, Myelin Basic Protein substrate was prepared in Reaction Buffer (20 mM Hepes (pH 7.5), 10 mM MgCl2, 1 mM EGTA, 0.01% Brij35, 0.02 mg/mL BSA, 0.1 mM Na3VO4, 2 mM DTT, 1% DMSO). PKMYT1 kinase was delivered into the substrate solution and gently mixed. Test compounds in 100% DMSO were added into the kinase reaction mixture by Acoustic technology (Echo550; nanoliter range) and incubated for 20 min at room temperature. ^33P-ATP was delivered into the reaction mixture to initiate the reaction. Reactions were carried out at 10 μM ATP. After a 2 hour incubation at room temperature, kinase activity was detected by P81 filter-binding method. […] A nonlinear regression model with a sigmoidal dose response and variable slope within GraphPad Prism (GraphPad Software, San Diego, Calif.) was used to calculate the IC50 value of individual test compounds.

[1] = test system: phospho-CDC2 in A427 cells; test: Phospho-CDC2 (Tyr15) sandwich ELISA in A427 cells; type: cell-based; conditions: Homo sapiens, A-427
Method: (§1) Changes in the levels of phospho-CDC2 following treatment of cells with test compounds were assessed by enzyme-linked immunosorbent assay (ELISA). A427 cells or AsPC-1 cells were plated in 6-well plates and cultured for 24 hr to approximately 80-90% confluency. Medium was replaced, and the cells were treated with the vehicle control or the test compound at several different concentrations. After incubation of treated cells in cell culture conditions for a specified time (e.g., 24 hr), cells were rinsed with ice-cold PBS and lysed in 1× cell lysis buffer containing protease inhibitors and phosphatase inhibitors. The cells were scraped from the plate with a cell scraper after a brief incubation on ice and transferred to a centrifuge tube, and then subjected to three freeze-thaw cycles in liquid nitrogen and a 37° C. water bath for further lysis. The lysates were centrifuged to pellet cell debris (using, for example, a 10 min centrifugation of 2000× g at 4° C.) and the supernatants transferred to fresh tubes on ice. The protein concentrations of the samples were estimated by the Bradford method or equivalent. The ELISA was carried out with the PathScan® Phospho-CDC2 (Tyr15) Sandwich ELISA Kit (Cat. #7176, Cell Signaling Technology, Danvers, Mass.) according to the manufacturer's instructions.

A427 cells = test: Cytotoxicity assay in A427 cell line (resazurin); type: cell-based; conditions: Homo sapiens, A-427; A427 lung epithelial cell line, 72 hr, inhibition of proliferation
Method: A427 (HTB-53; ATCC), a lung epithelial cell line, was seeded in medium (MEM, 41090101; Gibco) at a cell count of 1500 cells per 100 μL per well in a 96 well edge plate (167425; ThermoFisher). Cells were allowed to grow at 37° C. for 24 hr in 5% CO2 environment (culture conditions) in a Nuaire incubator (humidified). Serially diluted test compounds (100 μL) within the desired testing concentration ranges were added to the culture plate and the cells were further incubated in culture conditions for 72 hr. The experiment was terminated at the designated incubation time by replacing the medium with 100 μL of 1 mM of resazurin (R7017; Sigma) prepared in culture medium, and the plates were further incubated in culture conditions for 4-6 hr. Fluorescence was recorded using a multimodal plate reader (Biotek Synergy Neo) at an excitation wavelength of 535 nm and emission wavelength of 590 nm to obtain relative fluorescence units. Data were analysed as follows: the background fluorescence (blank containing only medium) value was subtracted from each reading and normalized with the vehicle control (DMSO treated cells) to obtain percent survival/proliferation. Percent survival was subtracted from 100 to get the percent inhibition of proliferation which was used to calculate IC50 values. Potency of compounds in other cell lines (such as A549, AsPc-1, Panc 10.05, A172, U-87MG) may be determined in an analogous manner.

WEE1 kinase enzyme = WEE1 kinase enzyme (Homo sapiens (Human), UniProt P30291); test: WEE1 IC50 determination, LanthaScreen Terbium Labeled TR-FRET kinase assay; type: biochemical; conditions: WEE1 enzyme 1 nM, ATP 10 μM
Chain of WEE1 kinase enzyme (P30291 whole entry): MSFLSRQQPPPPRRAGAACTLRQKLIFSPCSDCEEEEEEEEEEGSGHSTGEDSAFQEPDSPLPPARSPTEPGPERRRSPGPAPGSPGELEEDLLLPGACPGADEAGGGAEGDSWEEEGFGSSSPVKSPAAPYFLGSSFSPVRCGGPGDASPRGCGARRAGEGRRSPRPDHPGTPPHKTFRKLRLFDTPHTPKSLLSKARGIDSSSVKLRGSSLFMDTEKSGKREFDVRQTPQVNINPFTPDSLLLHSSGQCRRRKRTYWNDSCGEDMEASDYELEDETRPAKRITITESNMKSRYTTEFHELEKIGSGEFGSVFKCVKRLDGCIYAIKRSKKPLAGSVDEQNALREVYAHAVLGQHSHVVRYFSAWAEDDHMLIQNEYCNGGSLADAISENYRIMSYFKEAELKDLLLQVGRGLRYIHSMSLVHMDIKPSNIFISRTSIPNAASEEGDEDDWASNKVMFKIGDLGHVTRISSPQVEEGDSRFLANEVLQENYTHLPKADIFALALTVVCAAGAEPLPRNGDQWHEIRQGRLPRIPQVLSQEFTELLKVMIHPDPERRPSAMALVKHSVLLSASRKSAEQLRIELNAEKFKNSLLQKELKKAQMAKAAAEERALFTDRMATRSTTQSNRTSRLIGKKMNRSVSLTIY
Method: IC50 values of compounds against WEE1 kinase enzyme were determined by LanthaScreen™ Terbium Labeled TR-FRET assay. Kinase assays were performed in 1X kinase buffer (#PV6135, Invitrogen, Life Technologies Grand Island, N.Y.) where total reaction volume was 10 μL in low-volume 384-well plates (#4511, Corning). Serially diluted compounds (3-fold) were incubated with WEE1 Enzyme (1 nM) (#PR7373A, Invitrogen, Life Technologies, Grand Island, N.Y.) for 10 min; a mixture of ATP (10 μM) (#A1852, Sigma, St. Louis, Mo.) and fluorescent-PolyGT substrate (200 nM) (#PV3610, Invitrogen, Life Technologies Grand Island, N.Y.) was added and incubated in dark at room temperature for 1 h. After 1 h, 10 μL stop solution containing Terbium labeled antibody (4 nM) (#PV3529, Invitrogen, Life Technologies Grand Island, N.Y.) and EDTA (#E5134, Sigma, St. Louis, Mo.) (20 mM) in TR-FRET dilution buffer (#PV3574, Invitrogen, Life Technologies Grand Island, N.Y.) was added. Readings were taken in a Synergy Neo Plate reader (BioTek, Winooski, Vt.) at single excitation of 340 nm and dual emission at 495 nm and 520 nm respectively.
The % activity of test samples was calculated as (Sample−Min)*100/(Max−Min). [Max: DMSO control, complete reaction with enzyme & DMSO and Min: No enzyme & DMSO].

[2] = test system: phospho-CDC2 in AsPC-1 cells; test: Phospho-CDC2 (Tyr15) sandwich ELISA in AsPC-1 cells; type: cell-based; conditions: Homo sapiens, ASPC1
Method: as §1

Chain of PKMYT1 kinase (Q99640 whole entry): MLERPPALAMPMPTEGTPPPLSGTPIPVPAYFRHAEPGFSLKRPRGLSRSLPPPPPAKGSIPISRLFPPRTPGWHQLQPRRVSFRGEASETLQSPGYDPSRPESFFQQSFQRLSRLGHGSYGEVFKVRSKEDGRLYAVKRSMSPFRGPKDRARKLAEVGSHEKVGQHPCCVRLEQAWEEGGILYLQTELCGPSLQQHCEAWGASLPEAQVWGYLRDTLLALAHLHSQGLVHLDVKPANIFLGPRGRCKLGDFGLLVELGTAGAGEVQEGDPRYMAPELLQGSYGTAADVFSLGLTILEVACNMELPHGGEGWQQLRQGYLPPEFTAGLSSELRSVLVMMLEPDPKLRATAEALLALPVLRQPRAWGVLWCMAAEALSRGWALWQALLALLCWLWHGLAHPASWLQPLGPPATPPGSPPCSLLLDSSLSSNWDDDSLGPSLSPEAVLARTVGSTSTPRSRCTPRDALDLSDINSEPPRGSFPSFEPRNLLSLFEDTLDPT

| IC50 (PKMYT1 kinase) [nM] | IC50 [1] [nM] | IC50 (WEE1 kinase enzyme) [nM] | IC50 [2] [nM] | SMILES | IC50 (A427 cells) [nM] |
| --- | --- | --- | --- | --- | --- |
| 20100 | 230 | 16 | – | CC(C)n1c(=O)c2cnc(Nc3ccc4c(c3)CCNC4)nc2n1-c1ccc(F)c(C(C)(C)O)n1 [1.249, 1-(5-fluoro-6-(2-hydroxypropan-2-yl)pyridin-2-yl)-2-isopropyl-6-((1,2,3,4-tetrahydroisoquinolin-6-yl)amino)-1,2-dihydro-3H-pyrazolo[3,4-d]pyrimidin-3-one] | 592 |
| 223 | 176 | 4 | – | CCn1c(=O)c2cnc(Nc3ccc4c(c3)CNCC4)nc2n1-c1cccc(C2(C#N)CC2)n1 [1.38, 1-(6-(2-ethyl-3-oxo-6-((1,2,3,4-tetrahydroisoquinolin-7-yl)amino)-2,3-dihydro-1H-pyrazolo[3,4-d]pyrimidin-1-yl)pyridin-2-yl)cyclopropane-1-carbonitrile] | 401 |
| 6570 | 339 | 6 | – | CC(C)n1c(=O)c2cnc(Nc3ccc4c(c3)CCNC4)nc2n1-c1ccc(F)c(C(C)(C)F)n1 [1.1, 1-(5-fluoro-6-(2-fluoropropan-2-yl)pyridin-2-yl)-2-isopropyl-6-((1,2,3,4-tetrahydroisoquinolin-6-yl)amino)-1,2-dihydro-3H-pyrazolo[3,4-d]pyrimidin-3-one] | 3740 |
| 10200 | 952 | 36 | – | CC(C)(F)c1nc(-n2c3nc(Nc4ccc5c(c4)CCNC5)ncc3c(=O)n2C2CC2)ccc1F [1.2, 2-cyclopropyl-1-(5-fluoro-6-(2-fluoropropan-2-yl)pyridin-2-yl)-6-((1,2,3,4-tetrahydroisoquinolin-6-yl)amino)-1,2-dihydro-3H-pyrazolo[3,4-d]pyrimidin-3-one] | 3410 |
| 4540 | – | 9 | – | CCn1c(=O)c2cnc(Nc3ccc4c(c3)CCNC4)nc2n1-c1ccc(F)c(C(C)(C)O)n1 [1.261, 2-ethyl-1-(5-fluoro-6-(2-hydroxypropan-2-yl)pyridin-2-yl)-6-((1,2,3,4-tetrahydroisoquinolin-6-yl)amino)-1,2-dihydro-3H-pyrazolo[3,4-d]pyrimidin-3-one] | 900 |
| 4200 | – | 2 | – | CCn1c(=O)c2cnc(Nc3ccc4c(c3)CNCC4)nc2n1-c1cccc(C2(CF)CC2)n1 [1.86, 2-ethyl-1-(6-(1-(fluoromethyl)cyclopropyl)pyridin-2-yl)-6-((1,2,3,4-tetrahydroisoquinolin-7-yl)amino)-1,2-dihydro-3H-pyrazolo[3,4-d]pyrimidin-3-one] | 685 |
| 5630 | 320 | 9 | – | CC(C)n1c(=O)c2cnc(Nc3ccc4c(c3)CCNC4)nc2n1-c1cccc(C2(C#N)CC2)n1 [1.43, 1-(6-(2-isopropyl-3-oxo-6-((1,2,3,4-tetrahydroisoquinolin-6-yl)amino)-2,3-dihydro-1H-pyrazolo[3,4-d]pyrimidin-1-yl)pyridin-2-yl)cyclopropane-1-carbonitrile] | 1480 |
| 1540 | 66 | 10 | 285 | CC(C)n1c(=O)c2cnc(Nc3ccc4c(c3)CCNC4(C)C)nc2n1-c1cccc(C2(C#N)CC2)n1 [1.45, 1-(6-(6-(1,1-dimethyl-1,2,3,4-tetrahydroisoquinolin-6-ylamino)-2-isopropyl-3-oxo-2,3-dihydro-1H-pyrazolo[3,4-d]pyrimidin-1-yl)pyridin-2-yl)cyclopropanecarbonitrile] | 2180 |
| 691 | – | 13 | – | CCn1c(=O)c2cnc(Nc3ccc4c(c3)CCNC4)nc2n1-c1cccc(C2(C#N)CC2)n1 [1.37, 1-(6-(2-ethyl-3-oxo-6-((1,2,3,4-tetrahydroisoquinolin-6-yl)amino)-2,3-dihydro-1H-pyrazolo[3,4-d]pyrimidin-1-yl)pyridin-2-yl)cyclopropane-1-carbonitrile] | 660 |
| 11200 | – | 13 | – | CC(C)n1c(=O)c2cnc(Nc3ccc4c(c3)CCNC4)nc2n1-c1nc(C(C)(C)C#N)ccc1F [1.321, 2-(5-fluoro-6-(2-isopropyl-3-oxo-6-(1,2,3,4-tetrahydroisoquinolin-6-ylamino)-2,3-dihydro-1H-pyrazolo[3,4-d]pyrimidin-1-yl)pyridin-2-yl)-2-methylpropanenitrile] | 3540 |
